Assay results taken from publication PMC3567921 (Clinical cancer research : an official journal of the …, 2012).
pEC50: −log10 of the molar value.

Target: T1, Axl (Homo sapiens, UniProt P30530)
T1 sequence (P30530 26-894): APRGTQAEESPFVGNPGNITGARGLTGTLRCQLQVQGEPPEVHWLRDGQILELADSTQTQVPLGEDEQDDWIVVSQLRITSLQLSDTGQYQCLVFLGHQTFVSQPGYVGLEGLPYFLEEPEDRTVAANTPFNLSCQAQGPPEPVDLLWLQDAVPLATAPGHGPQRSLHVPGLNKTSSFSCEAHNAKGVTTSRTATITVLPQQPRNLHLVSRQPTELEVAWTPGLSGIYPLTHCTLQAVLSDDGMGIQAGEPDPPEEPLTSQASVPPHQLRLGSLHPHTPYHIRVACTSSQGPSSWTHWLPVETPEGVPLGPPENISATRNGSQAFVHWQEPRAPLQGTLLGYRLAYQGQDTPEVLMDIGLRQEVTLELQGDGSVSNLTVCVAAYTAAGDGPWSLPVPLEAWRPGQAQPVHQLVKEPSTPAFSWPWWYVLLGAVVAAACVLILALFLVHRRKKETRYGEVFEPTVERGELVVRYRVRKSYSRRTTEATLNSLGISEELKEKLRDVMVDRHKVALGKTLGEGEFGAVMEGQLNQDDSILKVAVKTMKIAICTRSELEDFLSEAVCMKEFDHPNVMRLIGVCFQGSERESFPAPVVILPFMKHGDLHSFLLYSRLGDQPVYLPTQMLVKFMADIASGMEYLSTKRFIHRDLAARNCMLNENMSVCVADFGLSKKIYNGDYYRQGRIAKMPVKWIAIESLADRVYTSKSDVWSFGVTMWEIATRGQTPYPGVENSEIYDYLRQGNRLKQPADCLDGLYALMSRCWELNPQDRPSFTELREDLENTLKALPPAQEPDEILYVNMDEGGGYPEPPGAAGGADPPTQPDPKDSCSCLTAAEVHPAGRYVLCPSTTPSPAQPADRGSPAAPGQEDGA
Test: anti-FLAG immunoprecipitation, phosphotyrosine Western blot densitometry
Type: cell-based

pEC50: > 7.00
Structure (SMILES): Cc1c[nH]c2nc(Nc3ccc(N4CCN(C)CC4)c(F)c3)nc(-c3cccc(CC#N)c3)c12 [SGI-7079]
